Key:
[1] = Valspodar blood concentrations by radioimmunoassay; format: in vivo, pediatric patients; conditions: at some point during the infusion
[2] = not given; remark: listed apart in the source
[3] = adults with leukemia, with mitoxantrone, etoposide, cytarabine; cited from earlier work
[4] = during valspodar infusion, resolved after completion, all dose levels

Structure (SMILES)	decrease of clearance when combined with valspodar (day 4 with valspodar versus day 1 pre-valspodar)	CL0 (baseline clearance) (in vivo)	Q (inter-compartmental clearance) (in vivo)	V1 (volume of the central compartment) (in vivo)	V2 (volume in the peripheral compartment) (in vivo)	valspodar concentration achieved in all patients [1]	patients with cerebellar toxicity (ataxia or dizziness) ([2]; all dose levels, 21 evaluable, one grade 3, two grade 2, two grade 1)	patients with transient hyperbilirubinemia ([2]; all dose levels, evaluable for toxicity)	transient hyperbilirubinemia, median maximum [2, 4]	transient hyperbilirubinemia, range of maximum [2, 4]	patients with valspodar infusion-related transaminase elevations ([2]; one grade 1, two grade 2, one grade 3, self-resolved)	maximum tolerated dose (MTD) in adults [3]
COc1cc([C@@H]2c3cc4c(cc3[C@@H](O[C@@H]3O[C@@H]5CO[C@@H](C)O[C@H]5[C@H](O)[C@H]3O)[C@H]3COC(=O)[C@H]23)OCO4)cc(OC)c1O [etoposide]	60%	1.52 L/h	2.38 L/h	3.58 L	3.82 L	–	–	–	–	–	–	–
O=C1c2c(O)ccc(O)c2C(=O)c2c(NCCNCCO)ccc(NCCNCCO)c21 [mitoxantrone]	–	16.4 L/h	8.13 L/h	–	–	–	–	–	–	–	–	–
C/C=C/C[C@@H](C)C(=O)[C@H]1C(=O)N[C@@H](C(C)C)C(=O)N(C)CC(=O)N(C)[C@@H](CC(C)C)C(=O)N[C@@H](C(C)C)C(=O)N(C)[C@@H](CC(C)C)C(=O)N[C@@H](C)C(=O)N[C@H](C)C(=O)N(C)[C@@H](CC(C)C)C(=O)N(C)[C@@H](CC(C)C)C(=O)N(C)[C@@H](C(C)C)C(=O)N1C [valspodar, Valspodar]	–	–	–	–	–	1,000 ng/mL	five	16 of 21	2 mg/dL	0.8 to 6.6 mg/dL	Four	10 mg/kg/day

Reference: paper PMC2838930 (Pediatric blood & cancer, 2010)
